Where a name gives a salt, the structure may show the parent alone.
Experiments:
[1] = tested on: ZIKV MR766 virus strain; assay: Prophylactic treatment of ZIKV infected SCID-Beige mice; format: in vivo; settings: AQ-treated ZIKV infected mice
[2] = tested on: ZIKV (FSS13025 strain); assay: qRT-PCR of total and (-) strand vRNA in hNPCs treated 48 h post-infection (FSS13025); format: cell-based, Zika virus; settings: treatment at 48 h post-infection, 25 μM, additional 3 days
Description: (A and B) Inhibitory curve and IC50 of AQ were calculated based on the infection rate (A) and normalized cell viability (B) (n=6). (C and D) Immunocytochemistry analysis (C) and quantification of infection rate and total cell number (D) of hNPCs after ZIKV infection treated with 15 μM AQ or DMSO or mock infection (n=3). Cells were fixed and stained for ZIKV E and with DAPI. Scale bars, 100 μm. p values were calculated by unpaired two-tailed Student's t-test. *p<0.05, and ***p<0.001. (E) qRT-PCR analysis of total and replicating (−) strand of ZIKV (MR 766 strain) vRNA level in hNPCs from two additional donors. hNPCs from different donors were treated with 25 μM HH at 24 h post-infection. (F) The expression dynamics of ZIKV vRNA (FSS13025 strain) in hNPCs. qRT-PCR analysis to quantify the total and replicating (−) strand ZIKV vRNA levels in hNPCs at different time points post-infection. […] (G) qRT-PCR analysis of hNPCs that were treated with 25 μM HH or DMSO at 48 h post-ZIKV (FSS13025 strain) infection and maintained for additional 3 days. p values were calculated by unpaired two-tailed Student's t-test. *p<0.05, **p<0.01 and ***p<0.001, unless otherwise stated. […]
RNA Extraction and qRT-PCR. […] ZIKV vRNA levels were calculated using a standard curve generated using serial 10-fold dilutions of ZIKV vRNA.

SMILES	ZIKV infection of adult cortex (immunohistochemistry) [1]	ZIKV infection of adult hippocampus (immunohistochemistry) [1]	ZIKV infection of adult striatum (immunohistochemistry) [1]	total and replicating (-) strand ZIKV vRNAs in hNPCs (FSS13025) [2]
CCN(CC)Cc1cc(Nc2ccnc3cc(Cl)ccc23)ccc1O [AQ, amodiaquine dihydrochloride dihydrate]	suppresses infection in adult cortex	suppresses infection in adult hippocampus	suppresses infection in adult striatum	
CN1CCC2=C[C@H](O)[C@H]3OC(=O)c4cc5c(cc4[C@H]3[C@@H]21)OCO5 [HH, hippeastrine hydrobromide]				completely suppressed

— patent US11466020B2, “Compounds and compositions for inhibition and elimination of Zika infection and uses for same” (Cornell University, priority 2017, dated 2022)
